In patent US11352352B2, “Aminopyrimidine compound, preparation method therefor and use thereof” (BEIJING ADAMADLE BIOTECHNOLOGY LIMITED LIABILITY COMPANY, priority 2017, dated 2022):

Key:
Test in all cases: Cell proliferation inhibition experiment, CellTiter-Glo (CTG) method
Assay type in all cases: cell-based
[1] = tested on: A-431; settings: Homo sapiens, A-431, 72 h, A-431 cells, 3 days
In short: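 IC50 values come from sigmoidal dose-response fits of percent survival, measured by CellTiter-Glo luminescence after 3 days' culture with compound. Nine-point, threefold series in triplicate, starting at 30 μM for A-431 and at 1.111 μM for NCI-H1975 and PC-9.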

[2] = tested on: NCI-H1975; settings: for IC50: Homo sapiens, NCI-H1975, 72 h, NCI-H1975 cells, CTG, 3 days; for A-431/NCI-H1975 Selectivity: ratio of A-431 IC50 to NCI-H1975 IC50
In short: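 NCI-H1975 cells with viability above 90% by trypan blue were seeded at 90 μL per well in black 96-well plates and incubated overnight at 37° C., 5% CO2. Compounds were added at nine concentrations in triplicate, and viability was measured with CellTiter-Glo luminescence on EnVision. IC50 came from non-linear S-curve fitting in GraphPad Prism 5.0.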

[3] = tested on: PC-9; settings: Homo sapiens, PC-9, 72 h, PC-9 cells, 3 days
In short: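 Cells in log-phase growth (viability above 90% by trypan blue) were seeded at 90 μL per well in black-walled, clear-bottom 96-well plates and incubated overnight at 37° C., 5% CO2. A T0 plate was read the next day. Test compounds were added at nine concentrations in triplicate with a solvent control. Viability was measured by CellTiter-Glo luminescence on EnVision, and IC50 came from non-linear S-curve fitting in GraphPad Prism 5.0.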

## C=CC(=O)Nc1cc(Nc2cc(-c3ccc4ncsc4c3)ncn2)c(OC)cc1N1CCC(N2CCN(C)CC2)CC1 [compound 64]
[1]
  IC50: 690 nM
[2]
  IC50: 13.1 nM
  A-431/NCI-H1975 Selectivity: 52.6
[3]
  IC50: 5.4 nM

## C=CC(=O)Nc1cc(Nc2nccc(-c3ccc4c(cnn4C)c3)n2)c(OC(F)F)cc1NCCN(C)C [compound 249]
[1]
  IC50: 943 nM
[2]
  IC50: 8.6 nM
  A-431/NCI-H1975 Selectivity: 109.7
[3]
  IC50: 61 nM

## C=CC(=O)Nc1cc(Nc2nccc(-c3ccc4c(cnn4C)c3)n2)c(OC)cc1N1C[C@@H](C)N(C)[C@@H](C)C1 [compound 229]
[1]
  IC50: 1620 nM
[2]
  IC50: 93.8 nM
  A-431/NCI-H1975 Selectivity: 17.3
[3]
  IC50: 68.1 nM

## C=CC(=O)Nc1cc(Nc2cc(-c3ccc4cnn(C)c4c3)ncn2)c(OC)cc1N1CCN(C2CCOC2)CC1 (centres unmarked) [compound 215]
[1]
  IC50: 1440 nM
[2]
  IC50: 18.4 nM
  A-431/NCI-H1975 Selectivity: 78.1
[3]
  IC50: 15.4 nM

## C=CC(=O)Nc1cc(Nc2cc(-c3ccc4c(cnn4C)c3)ncn2)c(OC)cc1N(C)C1CCCN(C)C1 (centres unmarked) [compound 69]
[1]
  IC50: 1830 nM
[2]
  IC50: 13.4 nM
  A-431/NCI-H1975 Selectivity: 136.8
[3]
  IC50: 10.4 nM

## C=CC(=O)Nc1cc(Nc2cc(-c3ccc4ncsc4c3)ncn2)c(OC)cc1N(C)CCN1C[C@@H](C)N(C)[C@@H](C)C1 [compound 126]
[1]
  IC50: 2010 nM
[2]
  IC50: 85 nM
  A-431/NCI-H1975 Selectivity: 23.7
[3]
  IC50: 64.1 nM

## C=CC(=O)Nc1cc(Nc2nccc(-c3ccc4c(cnn4C)c3)n2)c(OC)cc1N1CCN(CCO)CC1 [compound 278]
[1]
  IC50: 2480 nM
[2]
  IC50: 117 nM
  A-431/NCI-H1975 Selectivity: 21.2
[3]
  IC50: 40.9 nM

## C=CC(=O)Nc1cc(Nc2cc(-c3ccc4c(cnn4CC)c3)ncn2)c(OC)cc1N(C)C1CCN(C)C1 (centres unmarked) [compound 112]
[1]
  IC50: 654 nM
[2]
  IC50: 9 nM
  A-431/NCI-H1975 Selectivity: 72.7
[3]
  IC50: 9.7 nM

## C=CC(=O)Nc1cc(Nc2cc(-c3ccc4cnn(C)c4c3)ncn2)c(OC(F)F)cc1N1C[C@@H](C)N[C@@H](C)C1 [compound 277]
[1]
  IC50: 2010 nM
[2]
  IC50: 52.9 nM
  A-431/NCI-H1975 Selectivity: 37.9
[3]
  IC50: 21.9 nM

## C=CC(=O)Nc1cc(Nc2cc(-c3ccc4c(cnn4CC)c3)ncn2)c(OCC)cc1N(C)CCN(CC)CC [compound 94]
[1]
  IC50: 2040 nM
[2]
  IC50: 47.8 nM
  A-431/NCI-H1975 Selectivity: 42.6
[3]
  IC50: 55.7 nM

## C=CC(=O)Nc1cc(Nc2cc(-c3ccc4c(cnn4CC)c3)ncn2)c(OCC)cc1N1C[C@@H](C)N(C)[C@@H](C)C1 [compound 91]
[1]
  IC50: 1320 nM
[2]
  IC50: 62.2 nM
  A-431/NCI-H1975 Selectivity: 21.3
[3]
  IC50: 47.2 nM

## C=CC(=O)Nc1cc(Nc2cc(-c3ccc4cnn(C)c4c3)ncn2)c(OC)cc1N(C)CCN(C)C(C)C [compound 196]
[1]
  IC50: 2020 nM
[2]
  IC50: 36.4 nM
  A-431/NCI-H1975 Selectivity: 55.4
[3]
  IC50: 20.7 nM

## C=CC(=O)Nc1cc(Nc2cc(-c3ccc4c(cnn4C)c3)ncn2)c(OC(F)F)cc1OCCN1CCN(C)CC1 [compound 185]
[1]
  IC50: 2030 nM
[2]
  IC50: 53.8 nM
  A-431/NCI-H1975 Selectivity: 37.8
[3]
  IC50: 43.7 nM

## C=CC(=O)Nc1cc(Nc2cc(-c3ccc4cnn(C)c4c3)ncn2)c(OC(F)F)cc1N(C)CCN(CC)CC [compound 183]
[1]
  IC50: 984 nM
[2]
  IC50: 40.4 nM
  A-431/NCI-H1975 Selectivity: 24.4
[3]
  IC50: 69.8 nM

## C=CC(=O)Nc1cc(Nc2cc(-c3ccc4cnn(C)c4c3)ncn2)c(OC)cc1N(C)C1CCN(C)CC1 [compound 54]
[1]
  IC50: 1310 nM
[2]
  IC50: 111 nM
  A-431/NCI-H1975 Selectivity: 11.8
[3]
  IC50: 88.2 nM

## C=CC(=O)Nc1cc(Nc2cc(-c3ccc4c(cnn4C)c3)ncn2)c(OC(F)F)cc1N1CCC(N2CCN(C(C)C)CC2)CC1 [compound 147]
[1]
  IC50: 978 nM
[2]
  IC50: 18.4 nM
  A-431/NCI-H1975 Selectivity: 53.2
[3]
  IC50: 24.7 nM

## C=CC(=O)Nc1cc(Nc2cc(-c3ccc4c(cnn4C)c3)ncn2)c(OC)cc1CN1CCN(C)CC1 [compound 294]
[1]
  IC50: 4580 nM
[2]
  IC50: 71.3 nM
  A-431/NCI-H1975 Selectivity: 64.2
[3]
  IC50: 44.9 nM

## C=CC(=O)Nc1cc(Nc2cc(-c3ccc4c(cnn4C)c3)ncn2)c(OC)cc1N1CCC(N(C)C)C1 (centres unmarked) [compound 284]
[1]
  IC50: 670 nM
[2]
  IC50: 26.3 nM
  A-431/NCI-H1975 Selectivity: 25.5
[3]
  IC50: 13.4 nM

## C=CC(=O)Nc1cc(Nc2cc(-c3ccc4c(cnn4C)c3)ncn2)c(OC(F)F)cc1N(C)CCN(C)C(C)C [compound 256]
[1]
  IC50: 992 nM
[2]
  IC50: 9.6 nM
  A-431/NCI-H1975 Selectivity: 103.3
[3]
  IC50: 19.2 nM

## C=CC(=O)Nc1cc(Nc2cc(-c3ccc4c(cnn4C)c3)ncn2)c(OC(F)F)cc1N1CCC(N(C)C)CC1 [compound 175]
[1]
  IC50: 793 nM
[2]
  IC50: 8.1 nM
  A-431/NCI-H1975 Selectivity: 98.0
[3]
  IC50: 26 nM

## C=CC(=O)Nc1cc(Nc2cc(-c3ccc4c(cnn4C)c3)ncn2)c(OCC)cc1N(C)CCNC(C)(C)C [compound 121]
[1]
  IC50: 2310 nM
[2]
  IC50: 40.2 nM
  A-431/NCI-H1975 Selectivity: 57.6
[3]
  IC50: 31.1 nM

## C=CC(=O)Nc1cc(Nc2cc(-c3ccc4c(cnn4C)c3)ncn2)c(OCC)cc1N(C)CCN(C)CC [compound 140]
[1]
  IC50: 987 nM
[2]
  IC50: 11.7 nM
  A-431/NCI-H1975 Selectivity: 84.4
[3]
  IC50: 13.8 nM

## C=CC(=O)Nc1cc(Nc2cc(-c3ccc4c(cnn4CC)c3)ncn2)c(OCC)cc1N(C)CCN(C)C [compound 89]
[1]
  IC50: 954 nM
[2]
  IC50: 19.9 nM
  A-431/NCI-H1975 Selectivity: 48.0
[3]
  IC50: 14.8 nM

## C=CC(=O)Nc1cc(Nc2cc(-c3cc4cnn(C)c4cc3F)ncn2)c(OC)cc1N1CCC(N(CC)CC)CC1 [compound 193]
[1]
  IC50: 1480 nM
[2]
  IC50: 52.8 nM
  A-431/NCI-H1975 Selectivity: 28.0
[3]
  IC50: 30.9 nM

## C=CC(=O)Nc1cc(Nc2cc(-c3ccc4c(cnn4C)c3)ncn2)c(OC)cc1N(C)CCN1CCCC1 [compound 36]
[1]
  IC50: 1010 nM
[2]
  IC50: 31.4 nM
  A-431/NCI-H1975 Selectivity: 32.3
[3]
  IC50: 22 nM

## C=CC(=O)Nc1cc(Nc2cc(-c3ccc4cnn(C)c4c3)ncn2)c(OC)cc1N1C[C@@H](C)N[C@@H](C)C1 [compound 276]
[1]
  IC50: 2110 nM
[2]
  IC50: 32.4 nM
  A-431/NCI-H1975 Selectivity: 65.1
[3]
  IC50: 13 nM

## C=CC(=O)Nc1cc(Nc2cc(-c3ccc4cnn(C)c4c3)ncn2)c(OC)cc1N(C)C1CCN(C)C1 (centres unmarked) [compound 74]
[1]
  IC50: 1150 nM
[2]
  IC50: 31.9 nM
  A-431/NCI-H1975 Selectivity: 36.0
[3]
  IC50: 10.6 nM

## C=CC(=O)Nc1cc(Nc2cc(-c3cc4cnn(C)c4cc3F)ncn2)c(OC)cc1N1C[C@@H](C)N(C)[C@@H](C)C1 [compound 192]
[1]
  IC50: 1840 nM
[2]
  IC50: 47 nM
  A-431/NCI-H1975 Selectivity: 39.2
[3]
  IC50: 33 nM

## C=CC(=O)Nc1cc(Nc2cc(-c3ccc4c(cnn4C)c3)ncn2)c(OC)cc1N1CCN(C)[C@@H](C)C1 [compound 30]
[1]
  IC50: 1350 nM
[2]
  IC50: 32.4 nM
  A-431/NCI-H1975 Selectivity: 41.8
[3]
  IC50: 24.7 nM

## C=CC(=O)Nc1cc(Nc2cc(-c3ccc4c(cnn4C)c3)ncn2)c(OC)cc1N(C)C1CCC(N2CCN(C)CC2)CC1 (centres unmarked) [compound 72]
[1]
  IC50: 1900 nM
[2]
  IC50: 45.2 nM
  A-431/NCI-H1975 Selectivity: 42.1
[3]
  IC50: 29.7 nM

## C=CC(=O)Nc1cc(Nc2cc(-c3cc(F)c4c(cnn4C)c3)ncn2)c(OC)cc1N(C)CCN(C)C [compound 6]
[1]
  IC50: 1720 nM
[2]
  IC50: 32.1 nM
  A-431/NCI-H1975 Selectivity: 53.7
[3]
  IC50: 19.4 nM

## C=CC(=O)Nc1cc(Nc2cc(-c3ccc4c(cnn4C)c3)ncn2)c(OC)cc1N1CCN(CC2CC2)CC1 [compound 105]
[1]
  IC50: 778 nM
[2]
  IC50: 14.6 nM
  A-431/NCI-H1975 Selectivity: 53.3
[3]
  IC50: 17.9 nM

## C=CC(=O)Nc1cc(Nc2cc(-c3ccc4cnn(C)c4c3)ncn2)c(OC)cc1N1CCC(N2CCC(OC)CC2)CC1 [compound 205]
[1]
  IC50: 885 nM
[2]
  IC50: 13 nM
[3]
  IC50: 7.6 nM

## C=CC(=O)Nc1cc(Nc2cc(-c3ccc4nc(C)sc4c3)ncn2)c(OC)cc1N1CCC(N(CC)CC)CC1 [compound 191]
[1]
  IC50: 1760 nM
[2]
  IC50: 91.8 nM
  A-431/NCI-H1975 Selectivity: 19.2
[3]
  IC50: 56.4 nM

## C=CC(=O)Nc1cc(Nc2cc(-c3ccc4c(cnn4C)c3)ncn2)c(OCC)cc1N(C)C1CCN(C)C1 (centres unmarked) [compound 66]
[1]
  IC50: 779 nM
[2]
  IC50: 8.1 nM
  A-431/NCI-H1975 Selectivity: 96.2
[3]
  IC50: 8.5 nM

## C=CC(=O)Nc1cc(Nc2cc(-c3ccc4c(cnn4C)c3)ncn2)c(OC(F)F)cc1N(C)CCN(C)CC [compound 141]
[1]
  IC50: 539 nM
[2]
  IC50: 8.4 nM
  A-431/NCI-H1975 Selectivity: 64.2
[3]
  IC50: 23.1 nM

## C=CC(=O)Nc1cc(Nc2cc(-c3ccc4c(cnn4C)c3)ncn2)c(OC(F)F)cc1N1CCC(N2C[C@@H](C)N(C)[C@@H](C)C2)CC1 [compound 146]
[1]
  IC50: 800 nM
[2]
  IC50: 10.2 nM
  A-431/NCI-H1975 Selectivity: 78.5
[3]
  IC50: 14.9 nM

## C=CC(=O)Nc1cc(Nc2cc(-c3ccc4c(cnn4CC)c3)ncn2)c(OC)cc1N(C)CCN1CCN(C)CC1 [compound 118]
[1]
  IC50: 1060 nM
[2]
  IC50: 19.9 nM
  A-431/NCI-H1975 Selectivity: 53.2
[3]
  IC50: 23.6 nM

## C=CC(=O)Nc1cc(Nc2cc(-c3ccc4c(cnn4CC)c3)ncn2)c(OC(F)F)cc1N(C)CCN(CC)CC [compound 96]
[1]
  IC50: 945 nM
[2]
  IC50: 13.7 nM
  A-431/NCI-H1975 Selectivity: 69
[3]
  IC50: 10.8 nM
